{"source": "patent US20100041089A1", "about": "“IMPROVED METHOD FOR DETECTING CHEMICAL […]” (priority 2006, published 2010)", "tested_on": "yeast genes (expressed mRNA)", "assay": "DNA chip measurement of expressed mRNA of yeast genes after culture with a toxic chemical substance", "type": "cell-based, Saccharomyces cerevisiae S288C", "conditions": "for The level of expressed mRNA in the presence of chemical substance/The level of expressed mRNA in the absence of chemical substance: cultured two hours with substance; for level of expressed mRNA in the presence of chemical substance / level in the absence of chemical substance: cultured two hours with the chemical substance", "outline": "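Yeast S288C, YPD 25° C; toxicant at log phase, 2 h, sublethal growth-inhibiting conc.; no-chemical control. Hot SDS/acetate RNA extraction, oligo-dT mRNA, Cy3/Cy5-dUTP RT. Whole-genome chip, 65° C >12 h. Readout: treated/control intensity ratio, ≥2 significant.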"}
{"substance": "Manganese ethylenebis(dithiocarbamate) [(8)]", "values": [{"measurement": "The level of expressed mRNA in the presence of chemical substance/The level of expressed mRNA in the absence of chemical substance", "setting": "yeast gene YNL044W", "result": 1.8}, {"measurement": "level of expressed mRNA in the presence of chemical substance / level in the absence of chemical substance", "setting": "yeast gene YNL063W", "result": 1.5}, {"measurement": "The level of expressed mRNA in the presence of chemical substance/The level of expressed mRNA in the absence of chemical substance", "setting": "yeast gene YNL074C", "result": 0.6}, {"measurement": "The level of expressed mRNA in the presence of chemical substance/The level of expressed mRNA in the absence of chemical substance", "setting": "yeast gene YNL092W", "result": 0.9}, {"measurement": "The level of expressed mRNA in the presence of chemical substance/The level of expressed mRNA in the absence of chemical substance", "setting": "yeast gene YNL115C", "result": 0.8}, {"measurement": "The level of expressed mRNA in the presence of chemical substance/The level of expressed mRNA in the absence of chemical substance", "setting": "yeast gene YNL156C", "result": 1.2}, {"measurement": "level of expressed mRNA in the presence of chemical substance / level in the absence of chemical substance", "setting": "yeast gene YNL176C", "result": 0.9}, {"measurement": "level of expressed mRNA in the presence of chemical substance / level in the absence of chemical substance", "setting": "yeast gene YNL194C", "result": 0.9}, {"measurement": "level of expressed mRNA in the presence of chemical substance / level in the absence of chemical substance", "setting": "yeast gene YNL200C", "result": 0.7}, {"measurement": "The level of expressed mRNA in the presence of chemical substance/The level of expressed mRNA in the absence of chemical substance", "setting": "yeast gene YNL234W", "result": 1.3}, {"measurement": "level of expressed mRNA in the presence of chemical substance / level in the absence of chemical substance", "setting": "yeast gene YNL253W", "result": 1.1}, {"measurement": "level of expressed mRNA in the presence of chemical substance / level in the absence of chemical substance", "setting": "yeast gene YNL276C", "result": 0.7}, {"measurement": "The level of expressed mRNA in the presence of chemical substance/The level of expressed mRNA in the absence of chemical substance", "setting": "yeast gene YNL281W", "result": 1.2}, {"measurement": "The level of expressed mRNA in the presence of chemical substance/The level of expressed mRNA in the absence of chemical substance", "setting": "yeast gene YNL305C", "result": 0.7}, {"measurement": "level of expressed mRNA in the presence of chemical substance / level in the absence of chemical substance", "setting": "yeast gene YNR051C", "result": 0.7}, {"measurement": "The level of expressed mRNA in the presence of chemical substance/The level of expressed mRNA in the absence of chemical substance", "setting": "yeast gene YNR068C", "result": 1.1}, {"measurement": "level of expressed mRNA in the presence of chemical substance / level in the absence of chemical substance", "setting": "yeast gene YOL026C", "result": 1.1}, {"measurement": "The level of expressed mRNA in the presence of chemical substance/The level of expressed mRNA in the absence of chemical substance", "setting": "yeast gene YOL032W", "result": 1.5}, {"measurement": "The level of expressed mRNA in the presence of chemical substance/The level of expressed mRNA in the absence of chemical substance", "setting": "yeast gene YOL036W", "result": 0.8}, {"measurement": "The level of expressed mRNA in the presence of chemical substance/The level of expressed mRNA in the absence of chemical substance", "setting": "yeast gene YOL047C", "result": 1.1}, {"measurement": "The level of expressed mRNA in the presence of chemical substance/The level of expressed mRNA in the absence of chemical substance", "setting": "yeast gene YOL071W", "result": 1.6}, {"measurement": "The level of expressed mRNA in the presence of chemical substance/The level of expressed mRNA in the absence of chemical substance", "setting": "yeast gene YOL082W", "result": 1.1}, {"measurement": "The level of expressed mRNA in the presence of chemical substance/The level of expressed mRNA in the absence of chemical substance", "setting": "yeast gene YOL083W", "result": 1.3}, {"measurement": "The level of expressed mRNA in the presence of chemical substance/The level of expressed mRNA in the absence of chemical substance", "setting": "yeast gene YOL117W", "result": 1.1}, {"measurement": "The level of expressed mRNA in the presence of chemical substance/The level of expressed mRNA in the absence of chemical substance", "setting": "yeast gene YOL131W", "result": 1.1}, {"measurement": "The level of expressed mRNA in the presence of chemical substance/The level of expressed mRNA in the absence of chemical substance", "setting": "yeast gene YOL150C", "result": 3.7}, {"measurement": "The level of expressed mRNA in the presence of chemical substance/The level of expressed mRNA in the absence of chemical substance", "setting": "yeast gene YOL162W", "result": 1.6}, {"measurement": "The level of expressed mRNA in the presence of chemical substance/The level of expressed mRNA in the absence of chemical substance", "setting": "yeast gene YOR019W", "result": 1.1}, {"measurement": "level of expressed mRNA in the presence of chemical substance / level in the absence of chemical substance", "setting": "yeast gene YOR022C", "result": 1.2}, {"measurement": "level of expressed mRNA in the presence of chemical substance / level in the absence of chemical substance", "setting": "yeast gene YOR087W", "result": 0.8}, {"measurement": "level of expressed mRNA in the presence of chemical substance / level in the absence of chemical substance", "setting": "yeast gene YOR138C", "result": 0.8}, {"measurement": "The level of expressed mRNA in the presence of chemical substance/The level of expressed mRNA in the absence of chemical substance", "setting": "yeast gene YOR197W", "result": 0.9}, {"measurement": "level of expressed mRNA in the presence of chemical substance / level in the absence of chemical substance", "setting": "yeast gene YOR253W", "result": 1.2}, {"measurement": "level of expressed mRNA in the presence of chemical substance / level in the absence of chemical substance", "setting": "yeast gene YOR267C", "result": 0.7}, {"measurement": "level of expressed mRNA in the presence of chemical substance / level in the absence of chemical substance", "setting": "yeast gene YOR325W", "result": 0.9}, {"measurement": "level of expressed mRNA in the presence of chemical substance / level in the absence of chemical substance", "setting": "yeast gene YPL005W", "result": 1.0}, {"measurement": "The level of expressed mRNA in the presence of chemical substance/The level of expressed mRNA in the absence of chemical substance", "setting": "yeast gene YPL087W", "result": 1.0}, {"measurement": "level of expressed mRNA in the presence of chemical substance / level in the absence of chemical substance", "setting": "yeast gene YPL150W", "result": 1.1}, {"measurement": "level of expressed mRNA in the presence of chemical substance / level in the absence of chemical substance", "setting": "yeast gene YPL152W", "result": 1.1}, {"measurement": "level of expressed mRNA in the presence of chemical substance / level in the absence of chemical substance", "setting": "yeast gene YPL168W", "result": 1.2}, {"measurement": "level of expressed mRNA in the presence of chemical substance / level in the absence of chemical substance", "setting": "yeast gene YPL180W", "result": 1.0}, {"measurement": "level of expressed mRNA in the presence of chemical substance / level in the absence of chemical substance", "setting": "yeast gene YPL188W", "result": 1.6}, {"measurement": "The level of expressed mRNA in the presence of chemical substance/The level of expressed mRNA in the absence of chemical substance", "setting": "yeast gene YPL196W", "result": 1.2}, {"measurement": "The level of expressed mRNA in the presence of chemical substance/The level of expressed mRNA in the absence of chemical substance", "setting": "yeast gene YPL206C", "result": 1.0}, {"measurement": "level of expressed mRNA in the presence of chemical substance / level in the absence of chemical substance", "setting": "yeast gene YPL221W", "result": 0.9}, {"measurement": "The level of expressed mRNA in the presence of chemical substance/The level of expressed mRNA in the absence of chemical substance", "setting": "yeast gene YPL222W", "result": 0.7}, {"measurement": "level of expressed mRNA in the presence of chemical substance / level in the absence of chemical substance", "setting": "yeast gene YPL225W", "result": 1.7}, {"measurement": "The level of expressed mRNA in the presence of chemical substance/The level of expressed mRNA in the absence of chemical substance", "setting": "yeast gene YPR023C", "result": 0.9}, {"measurement": "level of expressed mRNA in the presence of chemical substance / level in the absence of chemical substance", "setting": "yeast gene YPR049C", "result": 1.1}, {"measurement": "level of expressed mRNA in the presence of chemical substance / level in the absence of chemical substance", "setting": "yeast gene YPR146C", "result": 0.8}, {"measurement": "level of expressed mRNA in the presence of chemical substance / level in the absence of chemical substance", "setting": "yeast gene YPR148C", "result": 1.5}, {"measurement": "The level of expressed mRNA in the presence of chemical substance/The level of expressed mRNA in the absence of chemical substance", "setting": "yeast gene YPR151C", "result": 1.4}, {"measurement": "level of expressed mRNA in the presence of chemical substance / level in the absence of chemical substance", "setting": "yeast gene YPR172W", "result": 1.0}]}
